Here are results for two molecules from article PMC9957770, “Mass spectrometry imaging–based assays for aminotransferase activity reveal a broad substrate spectrum for a previously uncharacterized enzyme” (The Journal of Biological Chemistry, 2023).

Structures are written as SMILES.

The target of the assay is T1, AtTAT1 (Arabidopsis thaliana, UniProt Q9FN30).
T1 construct: gene At5g53970; pET28a construct of Wang et al. (2016), His-tagged, expressed in E. coli Rosetta-2 (DE3), HisTrap purified
T1 sequence (Q9FN30 1-414): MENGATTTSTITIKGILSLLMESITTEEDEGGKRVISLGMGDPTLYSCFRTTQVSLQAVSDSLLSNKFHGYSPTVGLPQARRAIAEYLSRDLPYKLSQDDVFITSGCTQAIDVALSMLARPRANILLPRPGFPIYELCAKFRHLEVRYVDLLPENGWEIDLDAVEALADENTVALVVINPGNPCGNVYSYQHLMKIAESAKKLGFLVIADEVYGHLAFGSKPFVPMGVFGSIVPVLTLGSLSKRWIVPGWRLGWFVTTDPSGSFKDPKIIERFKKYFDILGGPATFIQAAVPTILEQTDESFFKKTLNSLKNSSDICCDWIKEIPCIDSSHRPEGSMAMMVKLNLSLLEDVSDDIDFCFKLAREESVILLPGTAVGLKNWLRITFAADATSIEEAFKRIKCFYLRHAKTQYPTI
Put plainly: oxime tagging with NIMS mass spectrometry imaging. The format is biochemical. To be noted: 10 mM amino donor, 6 mM alpha-ketoglutarate, 0.5 mM PLP, 100 mM HEPES, final pH 7.6 to 8.0, 30 °C, 60 min.

For `N[C@@H](Cc1ccc(O)cc1)C(=O)O` [tyrosine], the “oxime tagging with NIMS mass spectrometry imaging” value is “AtTAT1 can use Tyr, histidine (His), leucine (Leu), methionine (Met), phenylalanine (Phe), and tryptophan (Trp)”.

On to `N[C@@H](Cc1ccccc1)C(=O)O` [phenylalanine], for which the “oxime tagging with NIMS mass spectrometry imaging” value was “AtTAT1 can use Tyr, histidine (His), leucine (Leu), methionine (Met), phenylalanine (Phe), and tryptophan (Trp)”.
